# In patent US20110034378A1, “Pharmaceutical Combinations Comprising Specified Age Breaker and Further Drugs, I.A. Antihypertensive Drugs, Antidiabetic Drugs Etc” (priority 2008, published 2011):
# System: obese Zucker spontaneously hypertensive fatty rats (Ob-ZSF1)
# Assay: Effect of compound 27 on diabetic cardiomyopathy and nephropathy in Ob-ZSF1 rats
# Assay type: in vivo, rat
# Protocol: Aim: The aim of this study was to study the effect of compound 27 on diabetic cardiomyopathy and nephropathy in obese Zucker spontaneously hypertensive fatty rats (Ob-ZSF1), an animal model of diabetes with progressive cardiac and renal dysfunction.
# Method: Male Ob-ZSF1 rats were implanted with telemetry transmitters. At the age of 3 months, rats were divided into two treatment groups, compound 27, 9 mg/kg ip bid and 27 mg/kg ip, bid and a control group to which vehicle was administered until study termination at 34 weeks. 0.5% salt was added in drinking water from […] of treatment for 6 weeks in order to accelerate the vasculopathy. At fixed predetermined time intervals, blood pressure, urine albumin and creatinine were monitored during the study. Terminal measurement of cardiac function was performed in the same animals using Millar Pressure Volume (P-V) System. PV loops were captured to establish cardiac functional parameters and differences in end systolic pressure volume relationship (ESPVR) and end diastolic pressure volume relationship (EDPVR) at different preloads. Heart and kidney were collected from same set of animals at termination for gross and microscopic histopathological examination and for gene expression studies.
# [1] = 9 and 27 mg/kg ip bid, terminal Millar P-V measurement, vs vehicle control
# [2] = longitudinally over time, compared to control
# [3] = persistent severe hyperglycemia
structure (smiles),measurement,setting,value
"CS(=O)(=O)NNC(=O)c1ccc[n+](CC(=O)c2cccs2)c1.[Cl-] [compound 27, 1-(2-thien-2′-yl-2-oxoethyl)-3-(methanesulfonyl hydrazinocarbonyl)pyridinium chloride]",Relative heart wet weight,27 mg/kg group,significantly lesser
same,"damage to cardiomyocytes, microscopic examination","27 mg/kg group, compared to the control group",less severe damage
same,cardiac output,"9 and 27 mg/kg ip bid, terminal Millar P-V measurement at 34 weeks, vs vehicle control",significant improvement
same,diastolic relaxation,[1],more efficient
same,systolic contractile function,[1],better
same,ventricular compliance,[1],improved
same,peripheral resistance (afterload),"9 and 27 mg/kg ip bid, vs vehicle control",significant reduction
same,renal pathology observed microscopically,compared to control,less severe
same,Inflammatory cytokine Interleukin-6 (IL-6),compound 27 treated groups,reduced significantly
same,Renal function,"higher dose group, compared to control",distinct improvement
same,Percent increase from baseline for albumin to creatinine ratio,[2],significantly reduced
same,Percent increase from baseline for serial creatinine excretion,[2],significantly reduced
same,Percent increase from baseline for urinary albumin excretion,[2],significantly reduced
same,Brain natriuretic peptide (BNP) expression,"marker of cardiac failure, compared to control animals",reduced
same,cardiac function (conclusion),[3],clearly preserved
same,renal dysfunction (conclusion),[3],reduced the severity
same,BP,"telemetry, compound 27 treated animals",reduction
